System: Otub2, JosD1, JosD2, AMSH, Ataxin3, Ataxin3-like, UCHL5, USP20, and USP14
Assay: Substrate comparison on panel of nine isopeptidases
Format: biochemical
Procedure: For Ub-AMC and Ub-Rhodamine110, all enzymes were diluted into 50 mM Tris, pH 8.0, 5 mM DTT, 0.05% CHAPS to a final concentration of 10 nM. […] Either Ub-AMC or Ub-Rhodamine110 (final reaction concentration equal to 250 nM) were diluted into 50 mM Tris, pH 8.0, 5 mM DTT, 0.05% (w/v) CHAPS. […] For Ub-Rhodamine110, fluorescence was monitored with filters corresponding to excitation at 485 nm and emission at 531 nm.

## Ub(1-76)-aminoluciferin [Ub-LUC]
Equivalent molar concentrations, seven of nine DUBs (exceptions JosD2 and UCHL5)
  S/B towards Ub-amino-luciferin, fold higher than Ub-AMC / Ub-Rhodamine110: 10-1000 fold
Range over panel of 9 isopeptidases, 10 nM
  fold greater S/B compared to Z-RLRGG-amino-luciferin (DUB-Glo reagent): 10-1000 fold

Reference: US20120058499A1, “Bioluminescent Detection of Protease Activity” (priority 2010, published 2012)
